Tests used:
in vivo [1] = details: mouse, iv, 1 mg/kg
in vivo [2] = details: mouse, po, 10 mg/kg
in vivo [3] = details: mouse, iv, 1 mg/kg; remark: listed apart in the source
in vivo [4] = details: mouse, po, 10 mg/kg; remark: listed apart in the source
in vivo [5] = details: mouse, po, 10 mg/kg; remark: listed apart in the source

O=C(O)c1cc2c(s1)-c1ccccc1CC2
Vd (in vivo [1]): 0.57 L/kg | AUC (in vivo [2]): 158 µM·h | clearance (in vivo [3]): 2.4 mL/min/kg | Cmax (in vivo [4]): 64 µM | bioavailability (in vivo [5]): 52%

— ChEMBL document CHEMBL3758167, “4H-Thieno[3,2-c]chromene based inhibitors of Notum Pectinacetylesterase” (Bioorg Med Chem Lett, 2016)
